Laboratory results: ChEMBL document CHEMBL2016493, “Design, synthesis, synergistic antimicrobial activity and cytotoxicity of 4-aryl substituted 3,4-dihydropyrimidinones of curcumin” (Bioorg Med Chem Lett, 2012)
The source made the active and inactive calls. The calls are words filed in the database; no cut-off is given here.

Legend:
Pseudomonas aeruginosa [1] = experiment: Antibacterial activity against Pseudomonas aeruginosa ATCC 15499 at 160 uM/ml after 24 hrs by kirby-bauer method; assay type: functional; settings: ATCC 15499, 24 h, read-out: IZ
Salmonella typhimurium [2] = experiment: Antibacterial activity against Salmonella typhimurium ATCC 23564 at 80 uM/ml after 24 hrs by kirby-bauer method; assay type: functional
QG-56 = experiment: Cytotoxicity against human QG56 cells after 48 hrs by MTT assay; assay type: functional, cell-based
Curvularia lunata [3] = experiment: Antifungal activity against Curvularia lunata MTCC 581 at 80 uM/ml after 48 hrs by paper disc diffusion method; assay type: functional; settings: MTCC 581, 48 h, read-out: IZ
Aspergillus flavus [4] = experiment: Antifungal activity against Aspergillus flavus MTCC 1021 at 160 uM/ml after 48 hrs by paper disc diffusion method; assay type: functional
Curvularia lunata [5] = experiment: Antifungal activity against Curvularia lunata MTCC 581 at 40 uM/ml after 48 hrs by paper disc diffusion method; assay type: functional; settings: for zone of inhibition at 40 µM: MTCC 581, 48 h, read-out: IZ
Salmonella typhimurium [6] = experiment: Antibacterial activity against Salmonella typhimurium ATCC 23564 at 40 uM/ml after 24 hrs by kirby-bauer method; assay type: functional; settings: Salmonella enterica subsp. enterica serovar Typhimurium
Pseudomonas aeruginosa [7] = experiment: Antibacterial activity against Pseudomonas aeruginosa ATCC 15499 at 40 uM/ml after 24 hrs by kirby-bauer method; assay type: functional; settings: for zone of inhibition at 40 µM: ATCC 15499, 24 h, read-out: IZ
Pseudomonas aeruginosa [8] = experiment: Antibacterial activity against Pseudomonas aeruginosa ATCC 15499 at 20 uM/ml after 24 hrs by kirby-bauer method; assay type: functional; settings: for zone of inhibition at 20 µM: ATCC 15499, 24 h, read-out: IZ
Escherichia coli [9] = experiment: Antibacterial activity against Escherichia coli ATCC 35218 at 20 uM/ml after 24 hrs by kirby-bauer method; assay type: functional; settings: for zone of inhibition at 20 µM: ATCC 35218, 24 h, read-out: IZ
[10] = system: Burkholderia pseudomallei; experiment: Antibacterial activity against Burkholderia pseudomallei NTCC 10274 at 20 uM/ml after 24 hrs by kirby-bauer method; assay type: functional
[11] = system: Burkholderia pseudomallei; experiment: Antibacterial activity against Burkholderia pseudomallei NTCC 10274 at 40 uM/ml after 24 hrs by kirby-bauer method; assay type: functional
Aspergillus niger [12] = experiment: Antifungal activity against Aspergillus niger MTCC 1108 at 160 uM/ml after 48 hrs by paper disc diffusion method; assay type: functional; settings: for zone of inhibition at 160 µM: MTCC 1108, 48 h, read-out: IZ
Curvularia lunata [13] = experiment: Antifungal activity against Curvularia lunata MTCC 581 at 160 uM/ml after 48 hrs by paper disc diffusion method; assay type: functional; settings: MTCC 581, 48 h, read-out: IZ
Trichoderma viride [14] = experiment: Antifungal activity against Trichoderma viride MTCC 1107 at 160 uM/ml after 48 hrs by paper disc diffusion method; assay type: functional; settings: MTCC 1107, 48 h, read-out: IZ
Trichoderma viride [15] = experiment: Antifungal activity against Trichoderma viride MTCC 1107 at 80 uM/ml after 48 hrs by paper disc diffusion method; assay type: functional; settings: MTCC 1107, 48 h, read-out: IZ
Staphylococcus aureus [16] = experiment: Antibacterial activity against Staphylococcus aureus ATCC 11632 at 20 uM/ml after 24 hrs by kirby-bauer method; assay type: functional
Staphylococcus aureus [17] = experiment: Antibacterial activity against Staphylococcus aureus ATCC 11632 at 160 uM/ml after 24 hrs by kirby-bauer method; assay type: functional; settings: for zone of inhibition at 160 µM: ATCC 11632, 24 h, read-out: IZ
Pseudomonas aeruginosa [18] = experiment: Antibacterial activity against Pseudomonas aeruginosa ATCC 15499 at 80 uM/ml after 24 hrs by kirby-bauer method; assay type: functional; settings: for zone of inhibition at 80 µM: ATCC 15499, 24 h, read-out: IZ
Escherichia coli [19] = experiment: Antibacterial activity against Escherichia coli ATCC 35218 at 160 uM/ml after 24 hrs by kirby-bauer method; assay type: functional; settings: ATCC 35218, 24 h, read-out: IZ
Salmonella typhimurium [20] = experiment: Antibacterial activity against Salmonella typhimurium ATCC 23564 at 20 uM/ml after 24 hrs by kirby-bauer method; assay type: functional; settings: Salmonella enterica subsp. enterica serovar Typhimurium
[21] = system: Burkholderia pseudomallei; experiment: Antibacterial activity against Burkholderia pseudomallei NTCC 10274 at 160 uM/ml after 24 hrs by kirby-bauer method; assay type: functional; settings: for zone of inhibition at 160 µM: NTCC 10274, 24 h, read-out: IZ
Curvularia lunata [22] = experiment: Antifungal activity against Curvularia lunata MTCC 581 at 20 uM/ml after 48 hrs by paper disc diffusion method; assay type: functional; settings: for zone of inhibition at 20 µM: MTCC 581, 48 h, read-out: IZ
Escherichia coli [23] = experiment: Antibacterial activity against Escherichia coli ATCC 35218 at 40 uM/ml after 24 hrs by kirby-bauer method; assay type: functional; settings: ATCC 35218, 24 h, read-out: IZ
Trichoderma viride [24] = experiment: Antifungal activity against Trichoderma viride MTCC 1107 at 20 uM/ml after 48 hrs by paper disc diffusion method; assay type: functional; settings: MTCC 1107, 48 h, read-out: IZ
Staphylococcus aureus [25] = experiment: Antibacterial activity against Staphylococcus aureus ATCC 11632 at 80 uM/ml after 24 hrs by kirby-bauer method; assay type: functional; settings: ATCC 11632, 24 h, read-out: IZ
[26] = system: Burkholderia pseudomallei; experiment: Antibacterial activity against Burkholderia pseudomallei NTCC 10274 at 80 uM/ml after 24 hrs by kirby-bauer method; assay type: functional; settings: NTCC 10274, 24 h, read-out: IZ
Salmonella typhimurium [27] = experiment: Antibacterial activity against Salmonella typhimurium ATCC 23564 at 160 uM/ml after 24 hrs by kirby-bauer method; assay type: functional, Salmonella enterica subsp. enterica serovar Typhimurium; settings: for zone of inhibition at 160 µM: Salmonella enterica, ATCC 23564, 24 h, read-out: IZ
Trichoderma viride [28] = experiment: Antifungal activity against Trichoderma viride MTCC 1107 at 40 uM/ml after 48 hrs by paper disc diffusion method; assay type: functional; settings: MTCC 1107, 48 h, read-out: IZ
Escherichia coli [29] = experiment: Antibacterial activity against Escherichia coli ATCC 35218 at 80 uM/ml after 24 hrs by kirby-bauer method; assay type: functional; settings: ATCC 35218, 24 h, read-out: IZ
Staphylococcus aureus [30] = experiment: Antibacterial activity against Staphylococcus aureus ATCC 11632 at 40 uM/ml after 24 hrs by kirby-bauer method; assay type: functional
Aspergillus flavus [31] = experiment: Antifungal activity against Aspergillus flavus MTCC 1021 at 80 uM/ml after 48 hrs by paper disc diffusion method; assay type: functional
Aspergillus niger [32] = experiment: Antifungal activity against Aspergillus niger MTCC 1108 at 40 uM/ml after 48 hrs by paper disc diffusion method; assay type: functional
Aspergillus flavus [33] = experiment: Antifungal activity against Aspergillus flavus MTCC 1021 at 40 uM/ml after 48 hrs by paper disc diffusion method; assay type: functional
Aspergillus niger [34] = experiment: Antifungal activity against Aspergillus niger MTCC 1108 at 80 uM/ml after 48 hrs by paper disc diffusion method; assay type: functional
Aspergillus flavus [35] = experiment: Antifungal activity against Aspergillus flavus MTCC 1021 at 20 uM/ml after 48 hrs by paper disc diffusion method; assay type: functional
Aspergillus niger [36] = experiment: Antifungal activity against Aspergillus niger MTCC 1108 at 20 uM/ml after 48 hrs by paper disc diffusion method; assay type: functional
[37] = Salmonella enterica subsp. enterica serovar Typhimurium

SMILES | zone of inhibition at 160 µM (Pseudomonas aeruginosa [1]) [mm] | IC50 (QG-56) [uM/ml] | zone of inhibition at 80 µM (Curvularia lunata [3]) [mm] | inhibition zone (IZ) (Aspergillus flavus [4]) | inhibition zone (IZ) (Salmonella typhimurium [6]) | zone of inhibition at 40 µM (Pseudomonas aeruginosa [7]) [mm] | zone of inhibition at 20 µM (Pseudomonas aeruginosa [8]) [mm] | zone of inhibition at 20 µM (Escherichia coli [9]) [mm] | IC50 (HepG2) [uM/ml] | zone of inhibition at 160 µM (Curvularia lunata [13]) [mm] | zone of inhibition at 160 µM (Trichoderma viride [14]) [mm] | zone of inhibition at 80 µM (Trichoderma viride [15]) [mm] | inhibition zone (IZ) (Staphylococcus aureus [16]) | zone of inhibition at 160 µM (Staphylococcus aureus [17]) [mm] | zone of inhibition at 160 µM (Escherichia coli [19]) [mm] | zone of inhibition at 40 µM (Escherichia coli [23]) [mm] | zone of inhibition at 20 µM (Trichoderma viride [24]) [mm] | zone of inhibition (Trichoderma viride [28]) [mm] | zone of inhibition at 80 µM (Escherichia coli [29]) [mm] | IC50 (HCT-116) [uM/ml] | also measured
COc1cc(/C=C/C(=O)C2=C(/C=C/c3ccc(O)c(OC)c3)NC(=O)NC2c2ccc([N+](=O)[O-])cc2)ccc1O (centres undefined) | 19 | 100 | 9 | inactive | inactive | 14 | 9 | 12 | 100 | 11 | 21 | 21 | inactive | 11 | 18 | 15 | 17 | 19 | 16 | 50 | inhibition zone (IZ) (Salmonella typhimurium [2]; [37]): inactive; inhibition zone (IZ) (Curvularia lunata [5]): inactive; inhibition zone (IZ) [10]: inactive; inhibition zone (IZ) [11]: inactive; inhibition zone (IZ) (Aspergillus niger [12]): inactive; zone of inhibition at 80 µM (Pseudomonas aeruginosa [18]): 18 mm; inhibition zone (IZ) (Salmonella typhimurium [20]): inactive; zone of inhibition at 160 µM [21]: 12 mm; inhibition zone (IZ) (Curvularia lunata [22]): inactive; zone of inhibition at 80 µM (Staphylococcus aureus [25]): 10 mm; zone of inhibition at 80 µM [26]: 10 mm; zone of inhibition at 160 µM (Salmonella typhimurium [27]): 10 mm; inhibition zone (IZ) (Staphylococcus aureus [30]): inactive
COc1ccc(C2NC(=S)NC(/C=C/c3ccc(O)c(OC)c3)=C2C(=O)/C=C/c2ccc(O)c(OC)c2)cc1 (centres undefined) | 23 | 50 | 21 | – | – | 19 | 18 | – | 100 | 24 | 23 | 19 | – | – | 18 | 9 | 17 | 18 | 14 | 50 | inhibition zone (IZ) (Aspergillus flavus [31]): inactive; zone of inhibition at 160 µM (Aspergillus flavus [4]; MTCC 1021, 48 h, read-out: IZ): 9 mm; zone of inhibition at 40 µM (Curvularia lunata [5]): 18 mm; inhibition zone (IZ) (Escherichia coli [9]): inactive; zone of inhibition at 20 µM ([10]; NTCC 10274, 24 h, read-out: IZ): 16 mm; zone of inhibition at 40 µM ([11]; NTCC 10274, 24 h, read-out: IZ): 19 mm; zone of inhibition at 160 µM (Aspergillus niger [12]): 11 mm; inhibition zone (IZ) (Aspergillus niger [32]): inactive; inhibition zone (IZ) (Aspergillus flavus [33]): inactive; inhibition zone (IZ) (Staphylococcus aureus [17]): inactive; zone of inhibition at 80 µM (Pseudomonas aeruginosa [18]): 20 mm; zone of inhibition at 80 µM (Aspergillus niger [34]; MTCC 1108, 48 h, read-out: IZ): 9 mm; zone of inhibition at 160 µM [21]: 24 mm; zone of inhibition at 20 µM (Curvularia lunata [22]): 16 mm; inhibition zone (IZ) (Aspergillus flavus [35]): inactive; zone of inhibition at 80 µM [26]: 21 mm; inhibition zone (IZ) (Aspergillus niger [36]): inactive; inhibition zone (IZ) (Salmonella typhimurium [27]; [37]): inactive
COc1cc(/C=C/C(=O)C2=C(/C=C/c3ccc(O)c(OC)c3)NC(=O)NC2c2ccc(Cl)cc2)ccc1O (centres undefined) | 9 | 100 | 18 | inactive | inactive | – | – | 9 | 100 | 22 | 18 | 17 | inactive | 12 | 19 | 11 | 15 | 17 | 16 | 100 | zone of inhibition at 80 µM (Salmonella typhimurium [2]; Salmonella enterica, ATCC 23564, 24 h, read-out: IZ): 9 mm; zone of inhibition at 40 µM (Curvularia lunata [5]): 12 mm; inhibition zone (IZ) (Pseudomonas aeruginosa [7]): inactive; inhibition zone (IZ) (Pseudomonas aeruginosa [8]): inactive; zone of inhibition at 160 µM (Aspergillus niger [12]): 12 mm; inhibition zone (IZ) (Aspergillus niger [32]): inactive; inhibition zone (IZ) (Pseudomonas aeruginosa [18]): inactive; inhibition zone (IZ) (Aspergillus niger [34]): inactive; inhibition zone (IZ) (Salmonella typhimurium [20]): inactive; inhibition zone (IZ) [21]: inactive; zone of inhibition at 20 µM (Curvularia lunata [22]): 9 mm; zone of inhibition at 80 µM (Staphylococcus aureus [25]): 10 mm; inhibition zone (IZ) (Aspergillus niger [36]): inactive; zone of inhibition at 160 µM (Salmonella typhimurium [27]): 11 mm; inhibition zone (IZ) (Staphylococcus aureus [30]): inactive
